# Source: PubChem BioAssay AID1963974 (Molecular Pharmacology Branch, DTP, NCI, 2024)
# System: 648629-189-R-J1-PDC spheroids with HUVEC/MSC, viability
# Assay: Anticancer human tumor 648629-189-R-J1-PDC patient-derived bladder carcinoma cell line growth inhibition [PI3K]
# Settings: for IC50: curve of first compound; for viability, T/C: stronger effect = lower value
# How it was run: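 We assembled tumor spheroids that included a stromal compartment of HUVEC and MSCs, then exposed them to targeted agents alone and together with PI3K pathway inhibitors. Concentration series descended by half-log from clinically achievable Cmax levels. Viability served as the endpoint.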
# [1] = second compound 0.0316 µM, first compound 0.0316 µM
# [2] = second compound 0.0316 µM, first compound 0.1 µM
# [3] = second compound 0.0316 µM, first compound 0.316 µM
# [4] = second compound 0.0316 µM, first compound 1 µM
# [5] = second compound 0.1 µM, first compound 0.0316 µM
# [6] = second compound 0.1 µM, first compound 0.1 µM
# [7] = second compound 0.1 µM, first compound 0.316 µM
# [8] = second compound 0.1 µM, first compound 1 µM
# [9] = second compound 0.316 µM, first compound 0.0316 µM
# [10] = second compound 0.316 µM, first compound 0.1 µM
# [11] = second compound 0.316 µM, first compound 0.316 µM
# [12] = second compound 0.316 µM, first compound 1 µM
# [13] = second compound 1 µM, first compound 0.0316 µM
# [14] = second compound 1 µM, first compound 0.1 µM
# [15] = second compound 1 µM, first compound 0.316 µM
# [16] = second compound 1 µM, first compound 1 µM
# [17] = second compound 3.16 µM, first compound 0.0316 µM
# [18] = second compound 3.16 µM, first compound 0.1 µM
# [19] = second compound 3.16 µM, first compound 0.316 µM
# [20] = second compound 3.16 µM, first compound 1 µM
# [21] = second compound 10 µM, first compound 0.0316 µM
# [22] = second compound 10 µM, first compound 0.1 µM
# [23] = second compound 10 µM, first compound 0.316 µM
# [24] = second compound 10 µM, first compound 1 µM
# 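Further: spheroids exposed to agents for seven days before reading.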
# 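Wherever viability, T/C is given: percent of vehicle control luminescence where 100% = DMSO treated spheroids.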
smiles,measurement,setting,value
C[C@@H](NC(=O)c1ncnc(N)c1Cl)c1ncc(C(=O)Nc2cc(C(F)(F)F)c(Cl)cn2)s1 + Cc1nc(NC(=O)N2CCCC2C(N)=O)sc1-c1ccnc(C(C)(C)C(F)(F)F)c1,IC50,second compound 0.0316 µM,> 10000 nM
same,IC50,second compound 0.1 µM,> 10000 nM
same,IC50,second compound 0.316 µM,> 10000 nM
same,IC50,second compound 1 µM,> 10000 nM
same,IC50,second compound 3.16 µM,> 10000 nM
same,IC50,second compound 10 µM,< 31.6 nM
same,"viability, T/C",[1],101%
same,"viability, T/C",[2],93.8%
same,"viability, T/C",[3],98.8%
same,"viability, T/C",[4],116%
same,"viability, T/C","second compound 0.0316 µM, first compound 3.16 µM",107%
same,"viability, T/C","second compound 0.0316 µM, first compound 10 µM",106%
same,"viability, T/C",[5],107%
same,"viability, T/C",[6],92.4%
same,"viability, T/C",[7],95.4%
same,"viability, T/C",[8],108%
same,"viability, T/C","second compound 0.1 µM, first compound 3.16 µM",120%
same,"viability, T/C","second compound 0.1 µM, first compound 10 µM",118%
same,"viability, T/C",[9],81.2%
same,"viability, T/C",[10],101%
same,"viability, T/C",[11],83.4%
same,"viability, T/C",[12],93%
same,"viability, T/C","second compound 0.316 µM, first compound 3.16 µM",90.9%
same,"viability, T/C","second compound 0.316 µM, first compound 10 µM",94.5%
same,"viability, T/C",[13],74%
same,"viability, T/C",[14],73.2%
same,"viability, T/C",[15],78%
same,"viability, T/C",[16],77.9%
same,"viability, T/C","second compound 1 µM, first compound 3.16 µM",88.7%
same,"viability, T/C","second compound 1 µM, first compound 10 µM",82.6%
same,"viability, T/C",[17],53.3%
same,"viability, T/C",[18],56.6%
same,"viability, T/C",[19],59%
same,"viability, T/C",[20],55%
same,"viability, T/C","second compound 3.16 µM, first compound 3.16 µM",66%
same,"viability, T/C","second compound 3.16 µM, first compound 10 µM",54.7%
same,"viability, T/C",[21],40.2%
same,"viability, T/C",[22],35.4%
same,"viability, T/C",[23],39.2%
same,"viability, T/C",[24],36%
same,"viability, T/C","second compound 10 µM, first compound 3.16 µM",36.6%
same,"viability, T/C","second compound 10 µM, first compound 10 µM",42.7%
CCN1CCN(Cc2ccc(Nc3ncc(F)c(-c4cc(F)c5nc(C)n(C(C)C)c5c4)n3)nc2)CC1 + CC(Nc1ncnc2nc[nH]c12)c1cc2cccc(Cl)c2c(=O)n1-c1ccccc1,IC50,second compound 0.0316 µM,> 1000 nM
same,IC50,second compound 0.1 µM,> 1000 nM
same,IC50,second compound 0.316 µM,> 1000 nM
same,IC50,second compound 1 µM,> 1000 nM
same,IC50,second compound 3.16 µM,> 1000 nM
same,IC50,second compound 10 µM,> 1000 nM
same,"viability, T/C","second compound 0.0316 µM, first compound 0.00316 µM",90.1%
same,"viability, T/C","second compound 0.0316 µM, first compound 0.01 µM",96.2%
same,"viability, T/C",[1],105%
same,"viability, T/C",[2],111%
same,"viability, T/C",[3],113%
same,"viability, T/C",[4],122%
same,"viability, T/C","second compound 0.1 µM, first compound 0.00316 µM",107%
same,"viability, T/C","second compound 0.1 µM, first compound 0.01 µM",99.4%
same,"viability, T/C",[5],103%
same,"viability, T/C",[6],101%
same,"viability, T/C",[7],101%
same,"viability, T/C",[8],135%
same,"viability, T/C","second compound 0.316 µM, first compound 0.00316 µM",105%
same,"viability, T/C","second compound 0.316 µM, first compound 0.01 µM",96.3%
same,"viability, T/C",[9],98%
same,"viability, T/C",[10],108%
same,"viability, T/C",[11],113%
same,"viability, T/C",[12],109%
same,"viability, T/C","second compound 1 µM, first compound 0.00316 µM",106%
same,"viability, T/C","second compound 1 µM, first compound 0.01 µM",92.5%
same,"viability, T/C",[13],100%
same,"viability, T/C",[14],90.3%
same,"viability, T/C",[15],103%
same,"viability, T/C",[16],96.4%
same,"viability, T/C","second compound 3.16 µM, first compound 0.00316 µM",85.8%
same,"viability, T/C","second compound 3.16 µM, first compound 0.01 µM",106%
same,"viability, T/C",[17],86.8%
same,"viability, T/C",[18],88.2%
same,"viability, T/C",[19],111%
same,"viability, T/C",[20],105%
same,"viability, T/C","second compound 10 µM, first compound 0.00316 µM",85.6%
same,"viability, T/C","second compound 10 µM, first compound 0.01 µM",80.7%
same,"viability, T/C",[21],84.4%
same,"viability, T/C",[22],88%
same,"viability, T/C",[23],87%
same,"viability, T/C",[24],75.5%
